{
  "source": "paper PMC7175277",
  "about": "“Hydroxylamine Analogue of Agmatine: Magic Bullet for Arginine Decarboxylase” (Biomolecules, 2020)",
  "key": {"E. coli ODC": {"biological_target": "E. coli ODC (Escherichia coli, UniProt P21169)", "sequence (P21169 whole entry)": "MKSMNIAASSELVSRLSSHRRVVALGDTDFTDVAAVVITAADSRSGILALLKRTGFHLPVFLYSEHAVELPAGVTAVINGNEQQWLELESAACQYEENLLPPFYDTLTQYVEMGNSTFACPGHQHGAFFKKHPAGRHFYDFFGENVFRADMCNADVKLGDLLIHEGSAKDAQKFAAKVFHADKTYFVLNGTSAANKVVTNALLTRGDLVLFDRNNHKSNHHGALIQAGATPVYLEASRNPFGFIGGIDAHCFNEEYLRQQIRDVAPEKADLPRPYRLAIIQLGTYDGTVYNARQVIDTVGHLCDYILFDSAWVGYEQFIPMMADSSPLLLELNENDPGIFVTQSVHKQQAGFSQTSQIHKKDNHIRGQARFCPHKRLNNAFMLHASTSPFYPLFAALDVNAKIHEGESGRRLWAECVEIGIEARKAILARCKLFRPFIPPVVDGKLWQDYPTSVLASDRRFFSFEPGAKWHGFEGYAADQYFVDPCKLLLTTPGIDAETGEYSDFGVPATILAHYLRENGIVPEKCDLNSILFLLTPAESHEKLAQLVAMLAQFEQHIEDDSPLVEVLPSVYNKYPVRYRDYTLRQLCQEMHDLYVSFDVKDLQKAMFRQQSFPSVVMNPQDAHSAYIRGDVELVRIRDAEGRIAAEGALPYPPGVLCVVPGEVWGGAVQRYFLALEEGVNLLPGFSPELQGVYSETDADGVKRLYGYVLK", "test": "E. coli ODC activity assay (HPLC of Put)", "format": "biochemical", "experimental": "(§1) The purification was performed using a modified procedure of earlier publication. E. coli strain DH5α was grown in Luria-Bertani broth at +37 °C with shaking (200 rpm) overnight. The cells were collected by centrifugation and the pellet was homogenized with Potter-Elvehjem in 10 volumes (w/v) of ice-cold 50 mM Tris-HCl pH 7.4, 1 mM DTT. The cell debris was removed by centrifugation at 12,000 g for 30 min at +4 °C. Solid (NH4)2SO4 was added to the supernatant, and the pellet precipitating between 39% and 53% saturation was separated. The precipitate was resuspended in ice-cold buffer containing 50 mM Tris-HCl pH 7.4 and 1 mM DTT and desalted by passage through Sephadex G-25 column (NAP-10 column, GE Healthcare). The protein concentration was measured with Bio-Rad protein reagent, and the partially purified enzyme preparation was mixed with 20% glycerol and aliquoted for storage at −80 °C.\nThe ADC reaction mixture contained 50 mM Tris-HCl pH 7.8, 4 mM MgCl2, 1 mM DTT, 1.0 or 0.1 mM PLP and 20 μg of partially purified enzyme preparation in a total volume of 162 μL. The ODC reaction mixture contained 50 mM Tris-HCl pH 7.8, 1 mM EDTA, 2.4 mM DTT, 0.1 mM PLP and 20 μg of partially purified enzyme preparation. […] After incubation for 30 min (ADC) or 20 min (ODC) at +40 °C, 20 μL of 50% sulphosalicylic acid containing 50 μM diaminoheptane (internal standard) was added and the samples were analyzed for the content of agmatine (ADC) and Put (ODC) with HPLC as described previously. The kinetic parameters and IC50 values were determined with the aid of GraphPad Prism version 5.03 using nonlinear regression analysis."}, "E. coli ADC [1]": {"biological_target": "T1, E. coli ADC (Escherichia coli, UniProt P21170)", "T1 construct": "The kinetic parameters determined for the partially purified biosynthetic ADC from E. coli; endogenous in cells; host or cells: E. coli DH5α (39-53% ammonium sulphate fraction of the lysate, desalted)", "T1 sequence (P21170 1-658)": "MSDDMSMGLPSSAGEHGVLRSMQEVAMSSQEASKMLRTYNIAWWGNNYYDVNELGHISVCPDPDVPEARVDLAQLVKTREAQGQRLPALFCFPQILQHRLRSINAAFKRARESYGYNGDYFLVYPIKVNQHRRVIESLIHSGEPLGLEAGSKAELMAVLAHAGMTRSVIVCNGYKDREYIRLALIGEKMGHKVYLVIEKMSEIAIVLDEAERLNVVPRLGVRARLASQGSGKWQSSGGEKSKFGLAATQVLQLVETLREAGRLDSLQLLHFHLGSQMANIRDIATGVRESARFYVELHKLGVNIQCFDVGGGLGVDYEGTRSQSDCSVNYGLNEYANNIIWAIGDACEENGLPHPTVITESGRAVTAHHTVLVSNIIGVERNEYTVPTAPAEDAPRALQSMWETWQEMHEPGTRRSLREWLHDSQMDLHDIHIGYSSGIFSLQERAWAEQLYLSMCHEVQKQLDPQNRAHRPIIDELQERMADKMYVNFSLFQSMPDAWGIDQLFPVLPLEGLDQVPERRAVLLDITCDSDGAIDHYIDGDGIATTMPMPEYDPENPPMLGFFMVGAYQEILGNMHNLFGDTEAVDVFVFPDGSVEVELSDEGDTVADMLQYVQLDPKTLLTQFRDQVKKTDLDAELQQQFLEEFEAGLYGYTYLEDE", "test": "Ultrafiltration of ADC~PLP=AO-Agm complex, then ADC activity assay", "format": "biochemical", "conditions": "15 μM AO-Agm", "experimental": "Partially purified enzyme preparation was preincubated for 15 min with 15 μM AO-Agm (which produced 100% inhibition) or H2O (control) and 0.1 mM PLP in the assay buffer. The samples were placed on ice, and half of the reactions were filtered through a 3K cutoff ultrafiltration device (Millipore) and washed twice with 600 μL of buffer containing 50 mM Tris-HCl pH 7.4, 1 mM DTT and 0.1 mM PLP. ADC activity was then assayed."}, "E. coli ADC [2]": {"biological_target": "T1, E. coli ADC", "test": "E. coli ADC activity assay (HPLC of agmatine)", "format": "biochemical", "conditions": "for inhibition at 0.1 µM: AO-Agm 100 nM; for inhibition at 0.1 µM / inhibition at 0.5 µM: no preincubation; for inhibition at 0.5 µM: AO-Agm 500 nM", "experimental": "as §1\n[…] The ODC reaction mixture contained 50 mM Tris-HCl pH 7.8, 1 mM EDTA, 2.4 mM DTT, 0.1 mM PLP and 20 μg of partially purified enzyme preparation. The mixtures were either preincubated or not preincubated for 15 min at +40 °C in the presence of the inhibitor, after which the reaction was started by the addition of 18 μL of 10× substrate (L-Arg for ADC and L-Orn for ODC). After incubation for 30 min (ADC) or 20 min (ODC) at +40 °C, 20 μL of 50% sulphosalicylic acid containing 50 μM diaminoheptane (internal standard) was added and the samples were analyzed for the content of agmatine (ADC) and Put (ODC) with HPLC as described previously. The kinetic parameters and IC50 values were determined with the aid of GraphPad Prism version 5.03 using nonlinear regression analysis."}, "[3]": {"test_system": "DU145 prostate cancer cells", "test": "Growth of DU145 cells", "format": "cell-based", "conditions": "for Growth: 3 days", "experimental": "DU145 prostate cancer cells were cultured in high-glucose Dulbecco’s Modified Eagle’s Medium supplemented with 10% heat-inactivated fetal bovine serum, 2 mM L-glutamine and 50 μg/mL gentamycin (all from Sigma-Aldrich). The cells were plated on 6-well plates and allowed to attach overnight. […] The cells were harvested, and the pellet was mixed with 150 μL of 5% sulphosalicylic acid containing 5 μM diaminoheptane (internal standard). Polyamine analysis was carried out as described previously."}, "[4]": {"conditions": "0.1 mM PLP, 15 min preincubation, 0.15 mM L-Arg"}},
  "note": "“Also recorded” adds a separate entry of the source.",
  "data": [
    {"molecule": "N=C(N)NCCCON", "note": "[AO-Agm, 1-aminooxy-3-guanidinopropane]", "values": [
      {"measurement": "Potency towards E. coli ODC relative to E. coli ADC", "setting": "E. coli ODC", "value": "almost two orders of magnitude less potent; also recorded: almost two orders of magnitude less efficient"},
      {"measurement": "inhibition at 15 µM", "setting": "E. coli ADC [1]; 15 min preincubation, 0.1 mM PLP", "value": 100, "unit": "%"},
      {"measurement": "ADC activity after ultrafiltration and washing of the inhibitory complex", "setting": "E. coli ADC [1]; buffer containing 0.1 mM PLP", "value": "fully restored ADC activity"},
      {"measurement": "IC50", "setting": "E. coli ADC [2]; 0.01 mM PLP, 15 min preincubation, 0.15 mM L-Arg", "value": "26 ± 1", "unit": "nM"},
      {"measurement": "Effect of omitting the preincubation time on the efficiency of ADC inhibition", "setting": "E. coli ADC [2]; 0.1 mM PLP, 0.15 mM L-Arg", "value": "did not significantly alter"},
      {"measurement": "IC50", "setting": "E. coli ADC [2]; [4]", "value": "30 ± 1", "unit": "nM"},
      {"measurement": "Potency as ADC inhibitor relative to DFMA (more potent)", "setting": "E. coli ADC [2]; [4]", "value": 330, "unit": "times"},
      {"measurement": "IC50", "setting": "E. coli ADC [2]; 1 mM PLP, 15 min preincubation, 0.15 mM L-Arg", "value": "89 ± 1", "unit": "nM"},
      {"measurement": "inhibition at 0.1 µM", "setting": "E. coli ADC [2]; 0.15 mM L-Arg, 0.1 mM PLP", "value": 25, "unit": "%"},
      {"measurement": "inhibition at 0.1 µM", "setting": "E. coli ADC [2]; 1.5 mM L-Arg, 0.1 mM PLP", "value": "~5", "unit": "%"},
      {"measurement": "inhibition at 0.5 µM", "setting": "E. coli ADC [2]; 0.15 mM L-Arg, 0.1 mM PLP", "value": 95, "unit": "%"},
      {"measurement": "inhibition at 0.5 µM", "setting": "E. coli ADC [2]; 1.5 mM L-Arg, 0.1 mM PLP", "value": 60, "unit": "%"},
      {"measurement": "Growth", "setting": "[3]; AO-Agm 10 μM in the presence of SC (1 mM)", "value": "0.94 ± 0.03", "unit": "Fold"},
      {"measurement": "Growth", "setting": "[3]; AO-Agm 10 μM, no SC", "value": "0.96 ± 0.02", "unit": "Fold"},
      {"measurement": "Proliferation and intracellular polyamine pools of DU145 cells", "setting": "[3]; AO-Agm 0.01 mM and 0.1 mM", "value": "without effect"},
      {"measurement": "Growth", "setting": "[3]; AO-Agm 100 μM in the presence of SC (1 mM)", "value": "0.97 ± 0.02", "unit": "Fold"},
      {"measurement": "Growth", "setting": "[3]; AO-Agm 100 μM, no SC", "value": "0.96 ± 0.04", "unit": "Fold"},
      {"measurement": "Proliferation of DU145 cells", "setting": "[3]; AO-Agm 1 mM", "value": "moderately inhibited"},
      {"measurement": "Growth", "setting": "[3]; AO-Agm 1 mM in the presence of SC (1 mM)", "value": "0.45 ± 0.01", "unit": "Fold"},
      {"measurement": "Growth", "setting": "[3]; AO-Agm 1 mM, no SC", "value": "0.72 ± 0.04", "unit": "Fold"}
    ]}
  ]
}
